Assay results reported in the supplement of paper PMC9005190.

How the values were obtained:
GPR183 [1] = target: GPR183 (UniProt P32249); assay: Emax (maximal agonist-induced change in ebBRET relative to vehicle) (% of vehicle response (amplitude of change)); higher = larger response (for Gs, larger decrease in membrane ebBRET, i.e. stronger Gs activation)
GPR183 [2] = target: GPR183 (UniProt P32249); assay: pEC50 of agonist-induced pathway activation (ebBRET)
LPA1 = LPA1 (UniProt Q92633); assay: as above
LPA1, sequence (Q92633 whole entry): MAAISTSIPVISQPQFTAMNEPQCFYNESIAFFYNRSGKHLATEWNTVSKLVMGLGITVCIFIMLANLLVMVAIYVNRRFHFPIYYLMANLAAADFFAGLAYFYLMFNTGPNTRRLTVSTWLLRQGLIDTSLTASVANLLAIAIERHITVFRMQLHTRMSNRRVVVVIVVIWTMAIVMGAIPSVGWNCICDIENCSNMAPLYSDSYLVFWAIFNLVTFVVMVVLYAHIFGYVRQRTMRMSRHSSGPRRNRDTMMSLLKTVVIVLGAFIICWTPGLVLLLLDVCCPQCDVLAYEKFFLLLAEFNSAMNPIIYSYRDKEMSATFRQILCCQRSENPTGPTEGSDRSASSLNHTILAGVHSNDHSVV

FP [3] = target: FP (UniProt P43088); assay: Emax (maximal agonist-induced change in ebBRET relative to vehicle) (% of vehicle response (amplitude of change)); higher = larger response (for Gs, larger decrease in membrane ebBRET, i.e. stronger Gs activation)
FP, sequence (P43088 whole entry): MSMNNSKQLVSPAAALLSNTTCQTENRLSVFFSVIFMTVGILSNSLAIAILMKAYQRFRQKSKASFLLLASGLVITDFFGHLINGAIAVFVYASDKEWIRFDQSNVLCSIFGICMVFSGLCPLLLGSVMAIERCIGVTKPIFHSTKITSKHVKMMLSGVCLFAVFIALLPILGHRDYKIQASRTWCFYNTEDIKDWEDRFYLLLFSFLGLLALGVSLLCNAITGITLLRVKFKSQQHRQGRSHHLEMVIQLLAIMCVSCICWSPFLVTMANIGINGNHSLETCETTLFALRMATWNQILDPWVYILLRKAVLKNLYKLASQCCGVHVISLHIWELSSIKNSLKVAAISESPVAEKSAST

FP [4] = target: FP (UniProt P43088); assay: pEC50 of agonist-induced pathway activation (ebBRET)
EP1 = target: T1, EP1 (UniProt P34995); assay: as above
T1 sequence (whole entry): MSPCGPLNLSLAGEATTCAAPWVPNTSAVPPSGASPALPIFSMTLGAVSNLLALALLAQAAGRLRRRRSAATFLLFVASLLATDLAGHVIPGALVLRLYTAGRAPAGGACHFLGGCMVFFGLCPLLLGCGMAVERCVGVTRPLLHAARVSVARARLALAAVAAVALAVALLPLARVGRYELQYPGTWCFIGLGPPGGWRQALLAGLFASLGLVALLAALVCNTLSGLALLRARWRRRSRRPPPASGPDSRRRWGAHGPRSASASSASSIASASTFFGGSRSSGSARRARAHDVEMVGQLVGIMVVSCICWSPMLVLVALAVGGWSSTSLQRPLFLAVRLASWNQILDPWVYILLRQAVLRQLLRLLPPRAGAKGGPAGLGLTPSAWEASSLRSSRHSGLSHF

PAR2 [5] = target: PAR2 (UniProt P55085); assay: Emax (maximal agonist-induced change in ebBRET relative to vehicle) (% of vehicle response (amplitude of change)); higher = larger response (for Gs, larger decrease in membrane ebBRET, i.e. stronger Gs activation)
PAR2, sequence (P55085 whole entry): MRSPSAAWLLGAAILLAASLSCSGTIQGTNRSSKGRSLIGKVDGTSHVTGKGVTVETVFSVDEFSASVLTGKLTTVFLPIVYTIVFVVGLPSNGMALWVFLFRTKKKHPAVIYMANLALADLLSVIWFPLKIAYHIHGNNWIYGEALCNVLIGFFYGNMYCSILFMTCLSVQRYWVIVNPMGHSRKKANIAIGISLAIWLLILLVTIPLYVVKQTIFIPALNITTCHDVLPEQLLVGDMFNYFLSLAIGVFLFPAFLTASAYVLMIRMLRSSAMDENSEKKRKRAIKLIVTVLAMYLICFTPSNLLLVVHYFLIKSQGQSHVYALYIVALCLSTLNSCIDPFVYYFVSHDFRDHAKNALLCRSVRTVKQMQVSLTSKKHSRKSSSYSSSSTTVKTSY

PAR2 [6] = target: PAR2 (UniProt P55085); assay: pEC50 of agonist-induced pathway activation (ebBRET)
S1P1 [7] = target: S1P1 (UniProt P21453); assay: Emax (maximal agonist-induced change in ebBRET relative to vehicle) (% of vehicle response (amplitude of change)); higher = larger response (for Gs, larger decrease in membrane ebBRET, i.e. stronger Gs activation)
S1P1, sequence (P21453 whole entry): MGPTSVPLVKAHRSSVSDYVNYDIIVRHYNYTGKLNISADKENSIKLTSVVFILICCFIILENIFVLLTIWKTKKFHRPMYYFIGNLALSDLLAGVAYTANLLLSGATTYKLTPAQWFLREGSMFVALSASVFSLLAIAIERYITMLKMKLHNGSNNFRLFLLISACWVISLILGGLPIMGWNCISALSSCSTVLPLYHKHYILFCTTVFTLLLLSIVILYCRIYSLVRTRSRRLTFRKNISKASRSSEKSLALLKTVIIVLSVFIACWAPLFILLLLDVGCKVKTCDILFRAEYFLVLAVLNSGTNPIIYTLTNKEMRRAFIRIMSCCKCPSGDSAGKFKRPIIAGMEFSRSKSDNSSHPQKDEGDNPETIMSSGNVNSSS

S1P1 [8] = target: S1P1 (UniProt P21453); assay: pEC50 of agonist-induced pathway activation (ebBRET)

GPR183, sequence (P32249 whole entry): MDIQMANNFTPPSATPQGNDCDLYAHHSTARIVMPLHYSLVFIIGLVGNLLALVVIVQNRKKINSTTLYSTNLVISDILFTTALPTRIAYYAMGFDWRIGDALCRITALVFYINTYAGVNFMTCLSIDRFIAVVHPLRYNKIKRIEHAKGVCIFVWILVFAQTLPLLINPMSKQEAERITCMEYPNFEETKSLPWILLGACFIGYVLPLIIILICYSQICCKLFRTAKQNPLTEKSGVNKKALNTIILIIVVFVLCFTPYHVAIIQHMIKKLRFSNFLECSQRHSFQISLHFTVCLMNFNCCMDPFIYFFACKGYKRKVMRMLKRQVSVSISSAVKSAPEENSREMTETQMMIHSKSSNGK

C[C@H](CCCC(C)(C)O)[C@H]1CC[C@H]2[C@@H]3[C@H](O)C=C4C[C@@H](O)CC[C@]4(C)[C@H]3CC[C@]12C [7α-25 dihydroxycholesterol]
Conditions | Emax, GPR183 [1] | pEC50, GPR183 [2]
pathway (G protein / arrestin sensor): G12 | 53.4 | 8.98
pathway (G protein / arrestin sensor): G15 | 38.1 | 8.51
pathway (G protein / arrestin sensor): Gi1 | 134 | 9.74
pathway (G protein / arrestin sensor): Gi2 | 144 | 9.75
pathway (G protein / arrestin sensor): GoA | 166 | 9.16
pathway (G protein / arrestin sensor): GoB | 190 | 9.75
pathway (G protein / arrestin sensor): Gz | 123 | 9.16
pathway (G protein / arrestin sensor): βarr1/GRK2 | 1120 | 8.95
pathway (G protein / arrestin sensor): βarr2 | 502 | 8.23
pathway (G protein / arrestin sensor): βarr2/GRK2 | 573 | 8.8

CCCCCCCC/C=C\CCCCCCCC(=O)OCC(O)COP(=O)(O)O (configuration not stated) [O-LPA]
LPA1
Conditions | pEC50
pathway (G protein / arrestin sensor): G11 | 6.92
pathway (G protein / arrestin sensor): G13 | 8.35
pathway (G protein / arrestin sensor): G14 | 5.63
pathway (G protein / arrestin sensor): G15 | 6.31
pathway (G protein / arrestin sensor): Gi1 | 9.2
pathway (G protein / arrestin sensor): GoA | 8.89
pathway (G protein / arrestin sensor): Gq | 7.51
pathway (G protein / arrestin sensor): βarr1/GRK2 | 7.53
pathway (G protein / arrestin sensor): βarr2 | 6.58
pathway (G protein / arrestin sensor): βarr2/GRK2 | 7.46

CCCCC[C@H](O)/C=C/[C@H]1C(=O)C[C@H](O)[C@@H]1C/C=C\CCCC(=O)O [PGD2]
Conditions | Emax, FP [3] | pEC50, FP [4]
pathway (G protein / arrestin sensor): G11 | 459 | 8.66
pathway (G protein / arrestin sensor): G12 | 104 | 8.38
pathway (G protein / arrestin sensor): G13 | 183 | 8.78
pathway (G protein / arrestin sensor): G14 | 578 | 8.17
pathway (G protein / arrestin sensor): G15 | 437 | 8.88
pathway (G protein / arrestin sensor): GoA | 84.8 | 6.92
pathway (G protein / arrestin sensor): GoB | 114 | 6.99
pathway (G protein / arrestin sensor): Gq | 306 | 8.73
pathway (G protein / arrestin sensor): Gz | 122 | 7.46

CCCCC[C@H](O)/C=C/[C@H]1[C@H](O)CC(=O)[C@@H]1C/C=C\CCCC(=O)O [PGE2]
EP1
Conditions | pEC50
pathway (G protein / arrestin sensor): G11 | 8.27
pathway (G protein / arrestin sensor): G12 | 9.51
pathway (G protein / arrestin sensor): G13 | 8.04
pathway (G protein / arrestin sensor): G14 | 7.95
pathway (G protein / arrestin sensor): G15 | 9.29
pathway (G protein / arrestin sensor): Gi1 | 6.43
pathway (G protein / arrestin sensor): Gi2 | 7.37
pathway (G protein / arrestin sensor): GoA | 8
pathway (G protein / arrestin sensor): GoB | 7.46
pathway (G protein / arrestin sensor): Gq | 8.32
pathway (G protein / arrestin sensor): βarr2 | 7.41

CC[C@H](C)[C@H](NC(=O)[C@H](CC(C)C)NC(=O)[C@@H](N)CO)C(=O)NCC(=O)N[C@@H](CCCCN)C(=O)N[C@H](C(N)=O)C(C)C [SLIGKV-NH2]
Conditions | Emax, PAR2 [5] | pEC50, PAR2 [6]
pathway (G protein / arrestin sensor): G11 | 483 | 5.96
pathway (G protein / arrestin sensor): G12 | 41.5 | 7.79
pathway (G protein / arrestin sensor): G13 | 235 | 6.87
pathway (G protein / arrestin sensor): G14 | 419 | 5.46
pathway (G protein / arrestin sensor): G15 | 498 | 5.81
pathway (G protein / arrestin sensor): Gi1 | 621 | 5.32
pathway (G protein / arrestin sensor): Gi2 | 326 | 5.65
pathway (G protein / arrestin sensor): GoA | 217 | 5.85
pathway (G protein / arrestin sensor): GoB | 320 | 6.32
pathway (G protein / arrestin sensor): Gq | 304 | 5.18
pathway (G protein / arrestin sensor): Gz | 188 | 6.23
pathway (G protein / arrestin sensor): βarr1/GRK2 | 861 | 4.65
pathway (G protein / arrestin sensor): βarr2 | 766 | 4.63
pathway (G protein / arrestin sensor): βarr2/GRK2 | 489 | 4.75

CCCCCCCCCCCCC/C=C/[C@@H](O)[C@@H](N)COP(=O)(O)O [Sphingosine 1-phosphate]
Conditions | Emax, S1P1 [7] | pEC50, S1P1 [8]
pathway (G protein / arrestin sensor): G12 | 92 | 7.18
pathway (G protein / arrestin sensor): G13 | 175 | 6.86
pathway (G protein / arrestin sensor): G15 | 375 | 6.21
pathway (G protein / arrestin sensor): Gi1 | 132 | 8.15
pathway (G protein / arrestin sensor): Gi2 | 99.8 | 7.95
pathway (G protein / arrestin sensor): GoA | 68.5 | 7.75
pathway (G protein / arrestin sensor): GoB | 59.2 | 8.16
pathway (G protein / arrestin sensor): βarr1/GRK2 | 477 | 7.27
pathway (G protein / arrestin sensor): βarr2 | 227 | 6.83
pathway (G protein / arrestin sensor): βarr2/GRK2 | 557 | 7.46
